This is an account of results in BindingDB's records for doi:10.1002/cbic.200500061 (University of Bristol, 2005).

For the experiment, the target named is T1, 1-deoxy-D-xylulose 5-phosphate reductoisomerase (Escherichia coli (strain K12), UniProt P45568).
T1 sequence (P45568 whole entry): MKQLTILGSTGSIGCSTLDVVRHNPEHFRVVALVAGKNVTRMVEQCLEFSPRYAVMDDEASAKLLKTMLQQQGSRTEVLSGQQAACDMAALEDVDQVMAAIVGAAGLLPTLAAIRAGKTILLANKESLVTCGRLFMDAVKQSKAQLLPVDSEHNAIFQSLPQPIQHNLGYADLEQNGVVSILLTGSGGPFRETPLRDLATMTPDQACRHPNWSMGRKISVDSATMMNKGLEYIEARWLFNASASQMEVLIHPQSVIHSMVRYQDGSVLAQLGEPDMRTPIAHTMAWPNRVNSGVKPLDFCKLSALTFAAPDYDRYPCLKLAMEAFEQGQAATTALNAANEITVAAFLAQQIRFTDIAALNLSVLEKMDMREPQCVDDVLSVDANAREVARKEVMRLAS
Briefly: Inhibition Assay. Particulars: pH 8; 37 °C. The protocol:
The assay was monitored spectrophotometrically through the consumption of beta-NADPH. The inhibitor assays contained inhibitor at concentrations of 0.1-15 mM cyclic analogues and 5-35 mM phosphonic acid derivates.
The molecule `NCCCP(=O)(O)O` [Phosphate analogue, 8] yielded a Ki of 4 mM.
The molecule `CC(=O)NCCCP(=O)(O)O` [Phosphate analogue, 9] registered a Ki of 6.5 mM.
The value for `O=C1N[C@H](COP(=O)(O)O)CO1` [Phosphate analogue, (S)-21] was 4.1 mM; that for `O=C1OC[C@@H](COP(=O)(O)O)N1O` [Phosphate analogue, (s)-14] was 0.75 mM.

What is called Ki is a dissociation constant, usually derived from enzyme kinetics or from competition with a known ligand. The low end stands for a stronger hold on the target, the high end for a looser hold on the target.
